Test results from patent US20050058745A1, “Use of Labiatae herb preparations for extending the flavor shelf life of malt beverages” (priority 2003, published 2005).

Columns and labels:
[1] = DCIP redox potential of highly hopped beer during aging at 40° C.; format: physicochemical; design: DCIP Redox Value: scale not given here; conditions: for effect on DCIP redox potential: highly hopped beer aged at 40° C.
Description: Dr. […] H2SO4 brought to 100 mL in a volumetric flask. Four drops of starch indicator were added, and the DCIP was titrated with 0.01; sodium thiosulfate. The concentration of DCIP in mg/dL was measured by multiplying the mL of titer by 14.5. De-ionized water was added to adjust the final concentration to 1.45 mg/mL. 250 μL of adjusted DCIP was added to the 10 mL of degassed beer, the flask swirled to mix, and a 1 min timer started. The beer/DCIP was poured into a 1 cm cuvette and placed in the spectrophotometer. The absorbance was read at exactly 1 minute. These analyses were done in triplicate and averaged. […] The bottle dosing methods used were the same as those described in Example 1. The following samples were made: • 1. 20 ppm Carnosic Acid • 2. 20 ppm Carnosic Acid plus Air • 3. 20 ppm Rosmarinic Acid • 4. 20 ppm Rosmarinic Acid plus Air • 5. 10 ppm Carnosic Acid+10 ppm Rosmarinic Acid • 6. 10 ppm Carnosic Acid+10 ppm Rosmarinic Acid+Air • 7. […] No Additions. Treatments 1 through 8 were put in a temperature regulated room set at 40° C. and maintained at ±1° C. At intervals of Zero time, 3 days, 7 days, 14 days, and 21 days, samples were withdrawn and Redox Potentials were measured by the method outlined in example 4. Color measurements were made using the L, a, b system on a Minolta Spectrophotometer model […], chroma and hue angle color measure units were recorded. DPPH radical scavenging numbers were measured using the following method. A de-ionized-H2O/EtOH buffer solution was prepared by dissolving 250 mg sodium citrate dihydrate and 10 g of absolute ethanol in 250 mL of deionized water. The solution was then titrated with 0.1 N Citric acid (6.404 g/L anhydrous citric acid) a drop at a time to reach a pH of between 4.35 and 4.5.

[2] = Trained panel flavor evaluation, light beer, forced aging; conditions: 5 ppm, 6 days 32° C.; for preservation of fresh flavor (words): light beer
Description: Separate solution of pure rosmarinic acid, pure carnosol and pure carnosic acid were prepared in ethanol as previously.
The light beer used in this study was approximately one month old and was purchased at a local market. Bottle additions were done as in Example 1.
The bottles were placed in a heated room at 32±1° C. in the dark. After the allotted aging time, the bottles of beer were transferred to a dark refrigerator and stored at approximately 2° to 4° C. until they were analyzed. Additional bottles from the same code were kept unopened in 2° to 4° C. storage. These unopened samples from the same beer code were labeled “Fresh Control” used to provide fresh samples for the trained panel.
At the appropriate times, a trained 7-member panel evaluated the beers. […] Five beers were evaluated at the session—Fresh Control, Aged No Addition, and Aged containing each one of the Labiatae treatments. The overall preference rank, the character and intensity of the aroma, the levels of paper/cardboard aroma and flavor, sour or off flavors, hang and astringency and bitterness quality and intensity were evaluated.

[3] = DCIP redox potential of mash (first wort); format: physicochemical; conditions: for Redox: 20 ppm in mash (20 mg/kg of mash), first wort
Description: A 300 g sample of 2-row Pale Barley Malt obtained from a local brewery was ground to a “brewery grind” with a hand grinder. Fifty-gram samples of the ground malt were weighed into each of three 600 mL beakers. Tap water was boiled for 5 min to remove the chlorine and sanitize the water. When cooled, the pH of the water was adjusted from 7.86 to 5.5 with 0.1 N H2SO4. The water was then heated to 43° C. (109.4° F.) and 160 g of this adjusted water was added to each beaker. To one of the beakers was added 210 μL of a 2% solution of carnosic acid in ethanol (giving 20 mg CA/kg of mash). To another beaker was added 210 μL of a 2% solution of rosmarinic acid. One beaker received no treatment. The beakers were stirred for 10 min at 43° C. on a temperature probe controlled hot plate, with the probe in one of the beakers. After the 10 min period the beakers were placed on another temperature probe controlled hot plate set at 68° C. (154.4° F.), and the probe put in one of the mash beakers. The come up time was approximately 15 min from 43° C. to 68° C. The beakers were stirred at this temperature for 15 min. After the 15-minute mash, the beakers were removed from the hot plate and cooled in an ice bath. Each beaker's contents were strained through a paper filter. Approximately 75 mL of first wort was collected from each mash. The grain was not sparged. The °Balling of the worts was measured with a temperature-compensated refractometer (Abbe, Leica Mark II).

[4] = Trained panel flavor evaluation, highly hopped aromatic beer, forced aging; conditions: 20 ppm
Description: Separate solutions containing 2% pure rosmarinic acid or pure carnosic acid were prepared by weighing out 500 mg of each compound into separate volumetric flasks and diluting to 25 mL with 100% EtOH. The beer used in this study was the freshest material available, being coded Nov 03 […]. It was purchased at a local market. Bottle additions were done as in Example 1. The following samples were prepared: The bottles were placed in a heated room at 40±1° C. in the dark for varying amounts of time. After the allotted aging time, the bottles of beer were transferred to a dark refrigerator and stored at approximately 2to 4° C. until they were analyzed (always within 48 hours). Additional bottles from the same code were kept unopened in 2° to 4° C. storage. These unopened samples from the same beer code were labeled “Fresh Control” used to provide fresh samples for the trained panel. At the appropriate times, a trained 8-member panel evaluated the beers. […] Three beers were evaluated at each session-Fresh Control, Aged No Addition, and Aged Beer with one of the Labiatae treatments. The overall preference rank, the character and intensity of the aroma, the levels of paper/cardboard aroma and flavor, sour or off flavors, hang and astringency and bitterness quality and intensity were evaluated.

[5] = Blind sensory triangle panels, model citrus beverage
Description: Carbon filtered water was carbonated to 3.5 to 4 times the volume of beer. 59.2 ml of syrup was added to each 355 ml bottle. Each bottle was individually dosed with the treatments listed in Table 22 by adding 1.775 mL of a 1% (weight/volume) solution of carnosol or rosmarinic acid in ethanol to give 50 ppm of each. The bottle was filled to approximately 355 ml with carbonated water before it was capped and inverted. Fresh samples were stored in the refrigerator (0° C.). Heat exposed samples were aged in the oven (32° C.) for seven days. […] Each panel was balanced, with half of the panel given control as the odd sample, the other half of the panel given a treated sample as the odd sample. Panelists were allowed to drink water during the panel.

[6] = 0 days at 40° C., + Air, 20 ppm (RA + CA: 10 ppm each)
[7] = 0 days at 40° C., no air, 20 ppm (CA + RA: 10 ppm each)
[8] = 3 days at 40° C., + Air, 20 ppm (RA + CA: 10 ppm each)
[9] = 3 days at 40° C., no air, 20 ppm (CA + RA: 10 ppm each)
[10] = 7 days at 40° C., + Air, 20 ppm (RA + CA: 10 ppm each)
[11] = 7 days at 40° C., no air, 20 ppm (CA + RA: 10 ppm each)
[12] = 14 days at 40° C., + Air, 20 ppm (RA + CA: 10 ppm each)
[13] = 14 days at 40° C., no air, 20 ppm (CA + RA: 10 ppm each)
[14] = 21 days at 40° C., + Air, 20 ppm (RA + CA: 10 ppm each)
[15] = 21 days at 40° C., no air, 20 ppm (CA + RA: 10 ppm each)
[16] = Aged Control vs. Aged treated (32° C., seven days), 50 ppm (CA + RA: 50 ppm each)
[17] = Fresh Control vs. Fresh treated, 50 ppm

CC(C)c1cc2c(c(O)c1O)[C@@]1(C(=O)O)CCCC(C)(C)[C@@H]1CC2 [CA, carnosic acid]
DCIP Redox Value [1, 6]: 93.8 | DCIP Redox Value [1, 7]: 90.6 | DCIP Redox Value [1, 8]: 89.1 | DCIP Redox Value [1, 9]: 89.1 | DCIP Redox Value [1, 10]: 68.9 | DCIP Redox Value [1, 11]: 83.5 | DCIP Redox Value [1, 12]: 62.1 | DCIP Redox Value [1, 13]: 82.3 | DCIP Redox Value [1, 14]: 62.9 | DCIP Redox Value [1, 15]: 86.9 | effect on DCIP redox potential ([1]; no air): increases the DCIP redox potential of the starting beer | effect on DCIP redox potential ([1]; with added air): beneficial effect on aged beer that contains added air | panelists' preference for treated sample over Aged No Addition sample [2]: 7 of 7 panelists preferred | preservation of fresh flavor (words) [2]: very significantly retards the rate of staling | enhancing effect on redox potential of mash relative to RA ([3]; 20 ppm): less by about half the effect seen with RA | Redox [3]: 17.3 | panelists' preference for treated sample over Aged No Addition sample ([4]; 1 week 40° C.): 8 of 8 panelists preferred | Correct Panelists/Total Panelists (triangle test) [5, 16]: 9/21 | Correct Panelists/Total Panelists (triangle test) [5, 17]: 9/20

O=C(/C=C/c1ccc(O)c(O)c1)O[C@H](Cc1ccc(O)c(O)c1)C(=O)O [RA, rosmarinic acid]
DCIP Redox Value [1, 6]: 76.0 | DCIP Redox Value [1, 7]: 76.3 | DCIP Redox Value [1, 8]: 63.4 | DCIP Redox Value [1, 9]: 76.2 | DCIP Redox Value [1, 10]: 48.3 | DCIP Redox Value [1, 11]: 63.9 | DCIP Redox Value [1, 12]: 25.1 | DCIP Redox Value [1, 13]: 59.9 | DCIP Redox Value [1, 14]: 26.6 | DCIP Redox Value [1, 15]: 63.4 | effect on DCIP redox potential ([1]; no air): no effect on the DCIP redox potential | effect on DCIP redox potential ([1]; with added air): not effective in preserving the DCIP redox potential | panelists' preference for treated sample over Aged No Addition sample [2]: 7 of 7 panelists preferred | preservation of fresh flavor (words) [2]: very significantly retards the rate of staling | Redox [3]: 38.8 | panelists' preference for treated sample over Aged No Addition sample ([4]; 1 week 40° C.): 7 of 8 panelists preferred | panelists' preference for treated sample over Aged No Addition sample ([4]; 3 days 40° C.): 6 of 8 panelists preferred | Correct Panelists/Total Panelists (triangle test) [5, 16]: 12/20 | Correct Panelists/Total Panelists (triangle test) ([5]; Fresh Control vs. Aged treated (32° C., seven days), 50 ppm (CA + RA: 50 ppm each)): 12/21 | Correct Panelists/Total Panelists (triangle test) [5, 17]: 10/22 | difference from untreated samples detected by triangle panel ([5]; aged for 7 days): significant difference with a 95% confidence level
